Drawing on PubChem BioAssay (NCI), this text covers GI50 and TGI for 7 compounds.

Some test systems named below: HCC-2998 colon; RXF 393 renal; SK-MEL-28 melanoma; MALME-3M melanoma; UACC-62 melanoma; KM12 colon; SNB-75 CNS; MCF7 breast; 786-0 renal; A498 renal.
Holding throughout (test): inhibition of tumour cell growth, NCI panel, 48 h

Structures are written as SMILES. Several values for one entry are separate records, joined by “and”; a condition that tells them apart may be missing. Equal values may be shown once.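 A five-concentration, 48-hour dose response in 96-well plates underlies each endpoint, interpolated linearly between surrounding concentrations. Abbreviation: GI50, concentration required for 50% inhibition of growth. Definition used: TGI = concentration required for complete inhibition of growth.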 A value given as a limit tells only on which side of the number the result lay.

`C(=Nc1nc(SCc2ccccc2)nc2[nH]ncc12)c1cccs1`: the GI50 in the assay on HCC-2998 colon was 37.7 µM; in the assay on RXF 393 renal it was 47.1 µM; with SK-MEL-28 melanoma it was 31.3 µM; with MALME-3M melanoma it was 42.9 µM; in the assay with UACC-62 melanoma, 25.4 µM; in the assay with KM12 colon, 36.7 µM. For the same compound, the GI50 with SNB-75 CNS was more than 100 µM; in the assay on MCF7 breast, 40.4 µM; in the assay with 786-0 renal, 79.7 µM. For the same compound, the TGI in the assay on HCC-2998 colon was more than 100 µM; in the assay with RXF 393 renal, more than 100 µM; in the assay on SK-MEL-28 melanoma, more than 100 µM; with MALME-3M melanoma, more than 100 µM; in the assay with UACC-62 melanoma, 61.8 µM; with KM12 colon, more than 100 µM. Also, the TGI in the assay on SNB-75 CNS, in the assay on MCF7 breast and in the assay on 786-0 renal was more than 100 µM throughout.

`CCSCC1CC(O)(c2ccccc2)C(c2ccccc2)C(c2ccc(F)cc2)O1` (stereo not drawn): the GI50 in the assay with A498 renal is 2.15 µM; with HCC-2998 colon, 2.23 µM; with RXF 393 renal, 1.87 µM; in the assay on SK-MEL-28 melanoma it was 1.74 µM; with UACC-62 melanoma, 1.91 µM; in the assay with KM12 colon, 1.9 µM. The GI50 is 1.52 µM in the assay on SNB-75 CNS, 2.25 µM in the assay on MCF7 breast and 2.19 µM in the assay with 786-0 renal. In addition, the TGI in the assay with A498 renal worked out at 3.7 µM; in the assay on HCC-2998 colon it was 4.58 µM; in the assay with RXF 393 renal it was 3.57 µM; in the assay with SK-MEL-28 melanoma, 3.4 µM; with UACC-62 melanoma, 5.5 µM; in the assay on KM12 colon, 3.81 µM. The TGI in the assay with SNB-75 CNS was 3.67 µM; with MCF7 breast, 6.81 µM; with 786-0 renal it was 5.08 µM.

With `CC(=O)Oc1ccc(C2=Cc3ccc(OC(C)=O)cc3OC2C)cc1` (stereo not drawn), the GI50 with A498 renal is 2.25 µM; in the assay on HCC-2998 colon, 11.1 µM; with RXF 393 renal it was 4.11 µM; in the assay with SK-MEL-28 melanoma, 10.3 µM; in the assay with UACC-62 melanoma, 4.61 µM; in the assay with KM12 colon, 5.97 µM. Moreover, the GI50 is 3.48 µM with SNB-75 CNS, 6.28 µM in the assay on MCF7 breast and 4.1 µM in the assay with 786-0 renal. In addition, the TGI in the assay with A498 renal was determined as 7.95 µM; in the assay on HCC-2998 colon, 72 µM; with RXF 393 renal it was 26.4 µM; with SK-MEL-28 melanoma, 43.4 µM; with UACC-62 melanoma, 25.1 µM; with KM12 colon, 23.2 µM. Besides, the values for the TGI with SNB-75 CNS, in the assay on MCF7 breast and in the assay on 786-0 renal were 29.7 µM, 52.3 µM and 33.8 µM, respectively.

For `COC12C(COC(=O)NCCO)C3=C(C(=O)C(C)=C(N)C3=O)N1CC1NC12` (stereo not drawn), the TGI in the assay on A498 renal is 122 µM; in the assay on HCC-2998 colon, 99.3 µM; in the assay on RXF 393 renal, more than 264 µM; with SK-MEL-28 melanoma, more than 264 µM; in the assay with MALME-3M melanoma, 64 µM and 101 µM; in the assay on UACC-62 melanoma, 49.9 µM. Besides, the TGI is 177 µM with KM12 colon, 118 µM with MCF7 breast and more than 264 µM with 786-0 renal. In addition, the GI50 in the assay with RXF 393 renal was 141 µM; with MALME-3M melanoma, 45.3 µM; with KM12 colon, 61.7 µM; with 786-0 renal it was 41 µM.

On to `O=C(c1cccs1)c1c(C(F)(F)F)n([O-])c2cc(Cl)c(Cl)cc2[n+]1=O`, for which the GI50 was 1.27 µM in the assay with A498 renal; 1.5 µM in the assay on HCC-2998 colon; 1.79 µM in the assay with RXF 393 renal; 1.88 µM in the assay on SK-MEL-28 melanoma; 1.23 µM in the assay on MALME-3M melanoma; 1.18 µM with UACC-62 melanoma. Besides, the results for the GI50 with KM12 colon, with MCF7 breast and in the assay with 786-0 renal were 0.517 µM, 0.0762 µM and 0.756 µM, respectively. Further, the TGI in the assay on A498 renal was determined as 2.61 µM; with HCC-2998 colon, 2.86 µM; in the assay with RXF 393 renal it was 3.23 µM; with SK-MEL-28 melanoma, 4.61 µM; in the assay on MALME-3M melanoma, 2.65 µM; with UACC-62 melanoma, 2.54 µM. The TGI in the assay with KM12 colon came out at 1.08 µM; with MCF7 breast, 1.17 µM; in the assay on 786-0 renal, 1.91 µM.

With `Cc1ccc(NC(=O)c2cc(S(=O)(=O)Nc3nnc(-c4ccccc4)c(-c4ccccc4)n3)c(SCc3ccccc3)cc2Cl)cc1`, the GI50 with RXF 393 renal is 25.6 µM; in the assay with SK-MEL-28 melanoma it was 29.5 µM; in the assay on UACC-62 melanoma, 16.3 µM; in the assay on KM12 colon, 21.5 µM; with MCF7 breast, 24.4 µM; with 786-0 renal, 33.9 µM. The TGI in the assay on RXF 393 renal was 47.2 µM; in the assay on SK-MEL-28 melanoma, more than 100 µM; in the assay with UACC-62 melanoma, 31.2 µM; in the assay with KM12 colon it was 50.7 µM; with MCF7 breast, more than 100 µM; in the assay on 786-0 renal it was more than 100 µM.

As to `COCCN(CCOC)c1nc(-c2ccccc2)nc2ccccc12`, the GI50 is 30.1 µM in the assay on A498 renal; 34.6 µM in the assay with RXF 393 renal; 29.2 µM in the assay on SK-MEL-28 melanoma; 20.2 µM with MALME-3M melanoma; 18.2 µM in the assay with UACC-62 melanoma; 18.6 µM in the assay with KM12 colon. The GI50 in the assay on MCF7 breast is 20.6 µM; in the assay with 786-0 renal, 25.6 µM. The TGI with A498 renal is 89.7 µM; in the assay with RXF 393 renal, more than 100 µM; with SK-MEL-28 melanoma, more than 100 µM; with MALME-3M melanoma it was 39.9 µM; in the assay on UACC-62 melanoma, 34.9 µM; in the assay with KM12 colon, 47.2 µM. The TGI in the assay with MCF7 breast is 55.7 µM; in the assay on 786-0 renal, more than 100 µM.
